# Source: US10066159B2, “Composite nanoparticles including a phthalic acid derivative” (3M INNOVATIVE PROPERTIES COMPANY, priority 2013, dated 2018)
# Assay: Solubility in toluene
# Type: physicochemical
# Settings: based on a total weight of the solution
row,solubility in toluene,SMILES
1,greater than 1 weight percent,"CCCCCCCCOc1cc(C(=O)O)c(C(=O)O)cc1OCCCCCCCC [Example 2, 4,5-dioctyloxyphthalic Acid]"
2,greater than 1 weight percent,"CCCCCCOc1ccc(C(=O)O)c(C(=O)O)c1 [Example 1, 4-hexyloxyphthalic Acid]"
